Data reported in patent US8722849B2, “Polypeptides” (Novo Nordisk A/S, priority 2011, dated 2014).
Values after ≈ are worked out from the molar mass of the structure shown. Where two headings read alike, the source gives them in different places. Starred links: 1 amine or outer side, 2 acyl side, 3 side chain; linkers in the order of their positions; H or OH if unused. Positions of bridges follow the written chain, without caps; N, C: chain ends. Residues, ends and D or L forms follow the SMILES beside them. Groups on a side chain read outwards from the residue. *: point of attachment. C20 diacid = O=C(O)CCCCCCCCCCCCCCCCCCC(=O)*; C18 diacid = O=C(O)CCCCCCCCCCCCCCCCC(=O)*; γGlu = O=C(O)[C@H](CCC(=O)[*:2])N[*:1]

Legend:
[1] = Assay (IV) determination of solubility; type: physicochemical
How it was run: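 Eight 100 mM buffers (glycylglycine pH 3.0–5.0, bistrispropane pH 6.0–8.0) each received an equal volume of polypeptide dissolved in water at ~500 nmol/ml. Soluble polypeptide was measured by HPLC following 18 hours at room temperature and centrifugation.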

[2] = biological target: T1, human amylin receptor (amylin 3(a) receptor: human calcitonin receptor + RAMP-3) (Homo sapiens, UniProt O60896+P30988); experiment: Assay (II)a functional CRE-luciferase assay, human amylin receptor; type: cell-based
T1 construct: expressed in transfected cells; host or cells: BHK570
T1 sequence (P30988 25-474): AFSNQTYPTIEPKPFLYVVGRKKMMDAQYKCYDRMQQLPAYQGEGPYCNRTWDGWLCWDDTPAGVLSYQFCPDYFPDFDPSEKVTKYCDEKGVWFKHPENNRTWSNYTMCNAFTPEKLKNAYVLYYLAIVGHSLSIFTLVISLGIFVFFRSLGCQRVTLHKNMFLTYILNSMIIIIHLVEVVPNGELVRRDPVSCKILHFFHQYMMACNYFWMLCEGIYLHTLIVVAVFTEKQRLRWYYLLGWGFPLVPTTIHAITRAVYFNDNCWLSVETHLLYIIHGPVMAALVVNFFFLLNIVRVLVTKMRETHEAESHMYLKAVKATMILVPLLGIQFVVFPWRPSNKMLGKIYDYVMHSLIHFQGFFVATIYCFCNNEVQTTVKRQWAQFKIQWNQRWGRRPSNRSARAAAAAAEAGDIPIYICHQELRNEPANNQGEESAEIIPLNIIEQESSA
T1 sequence (O60896 24-148 partner): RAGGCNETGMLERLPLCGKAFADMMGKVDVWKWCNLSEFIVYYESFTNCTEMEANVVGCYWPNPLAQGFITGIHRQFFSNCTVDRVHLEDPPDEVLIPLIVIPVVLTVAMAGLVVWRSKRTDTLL

[3] = Assay (III) ThT fibrillation assay for physical stability; type: physicochemical; details: ThT fibrillation assay
How it was run: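 Freshly prepared formulations, pH-adjusted, with 1 μM ThT; four or eight replicates incubated at 37 °C under 960 rpm orbital shaking. Fluorescence (ex 444/em 485 nm) read every 20 min; […]. Peptide concentration measured by RP-HPLC before and after the run.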

[4] = biological target: T2, human calcitonin receptor (Homo sapiens, UniProt P30988); experiment: Assay (II)a functional CRE-luciferase assay, human calcitonin receptor; type: cell-based
T2 construct: expressed in transfected cells; host or cells: BHK570
T2 sequence (P30988 25-474): T1 sequence (P30988 25-474)

[5] = bistrispropane buffer, pH 6, pH 6.0, read-out: Solubility pH 6.0
[6] = bistrispropane buffer, pH 6.5, pH 6.5, read-out: Solubility pH 6.5
[7] = bistrispropane buffer, pH 7, pH 7.0, read-out: Solubility pH 7.0
[8] = bistrispropane buffer, pH 7.5, pH 7.5, read-out: Solubility pH 7.5
[9] = glycylglycine buffer, pH 3, pH 3.0, read-out: Solubility pH 3.0
[10] = glycylglycine buffer, pH 4, pH 4.0, read-out: Solubility pH 4.0
[11] = glycylglycine buffer, pH 5, pH 5.0, read-out: Solubility pH 5.0
[12] = bistrispropane buffer, pH 7, pH 7.0, 18 hours at room temperature, Table 3, read-out: Solubility pH 7.0
[13] = bistrispropane buffer, pH 8, pH 8.0, read-out: Solubility pH 8.0
[14] = glycylglycine buffer, pH 4, pH 4.0, 18 hours at room temperature, Table 2, read-out: Solubility pH 4.0
[15] = Table 2, BHK amylin 3(a)-receptor/CRE-luc cells
[16] = Table 7, human calcitonin (CTa) receptor

SMILES | solubility at 18 h [1, 5] [µM] | solubility at 18 h [1, 6] [µM] | solubility at 18 h [1, 7] [µM] | solubility at 18 h [1, 8] [µM] | solubility at 18 h [1, 9] [µM] | solubility at 18 h [1, 10] [µM] | solubility at 18 h [1, 11] [µM] | solubility at 18 h ([1]; pH 8.0, read-out: Solubility pH 8.0) [µM] | EC50 ([2]; Table 11) [nM] | ThT pH 4.0 lag time (h) [3] [h] | EC50 ([4]; Table 11, read-out: CTa receptor human EC50) [nM] | solubility at 18 h [1, 12] [µM] | solubility at 18 h [1, 13] [µM] | solubility at 18 h [1, 14] [µM] | EC50 [2, 15] [nM] | EC50 [4, 16] [nM]
CC[C@H](C)[C@H](NC(=O)[C@@H]1CCCN1C(=O)CNC(=O)[C@H](Cc1ccccc1)NC(=O)[C@H](CC(N)=O)NC(=O)[C@H](CC(N)=O)NC(=O)[C@H](CO)NC(=O)[C@H](CO)NC(=O)[C@H](Cc1c[nH]cn1)NC(=O)[C@@H](NC(=O)[C@H](CC(C)C)NC(=O)[C@H](Cc1ccccc1)NC(=O)[C@H](CC(N)=O)NC(=O)[C@H](C)NC(=O)[C@H](CC(C)C)NC(=O)[C@H](CCCNC(=N)N)NC(=O)[C@H](CCC(N)=O)NC(=O)[C@@H](NC(=O)[C@H](C)NC(=O)[C@@H]1CSSC[C@H](NC(=O)[C@H](CCCNC(=N)N)NC(=O)CC[C@H](NC(=O)CCCCCCCCCCCCCCCCCCC(=O)O)C(=O)O)C(=O)N[C@@H](CC(N)=O)C(=O)N[C@@H]([C@@H](C)O)C(=O)N[C@@H](C)C(=O)N[C@@H]([C@@H](C)O)C(=O)N1)[C@@H](C)O)C(C)C)C(=O)N[C@@H](CC(C)C)C(=O)N1CCC[C@H]1C(=O)N1CCC[C@H]1C(=O)N[C@H](C(=O)N[C@@H](CC(N)=O)C(=O)N[C@H](C(=O)NCC(=O)N[C@@H](CO)C(=O)N[C@@H](Cc1c[nH]cn1)C(=O)N[C@H](C(=O)N[C@@H](Cc1ccc(O)cc1)C(N)=O)[C@@H](C)O)C(C)C)[C@@H](C)O [Example 98] ({C20 diacid-γGlu}-RCNTATCATQRLANFLVHSSNNFGPILPPTNVGSHTY-NH2; disulfide 2-7 (inferred); C-terminus assumed) | 85 (≈ 379 µg/mL) | 1 (≈ 4.45 µg/mL) | 1 (≈ 4.45 µg/mL) | 1 (≈ 4.45 µg/mL) | > 200 | > 200 | > 200 | 1 (≈ 4.45 µg/mL) | 0.0745 | 2.6 | 0.193 |  |  |  |  | 
CC[C@H](C)[C@H](NC(=O)[C@@H]1CCCN1C(=O)CNC(=O)[C@H](Cc1ccccc1)NC(=O)[C@H](CC(N)=O)NC(=O)[C@H](CC(N)=O)NC(=O)[C@H](CO)NC(=O)[C@H](CO)NC(=O)[C@H](Cc1c[nH]cn1)NC(=O)[C@H](Cc1c[nH]cn1)NC(=O)[C@H](CC(C)C)NC(=O)[C@H](Cc1ccccc1)NC(=O)[C@H](CCC(=O)O)NC(=O)[C@H](C)NC(=O)[C@H](CC(C)C)NC(=O)[C@H](CCCNC(=N)N)NC(=O)[C@H](CCC(N)=O)NC(=O)[C@@H](NC(=O)[C@H](C)NC(=O)[C@@H]1CSSC[C@H](NC(=O)[C@@H](N)CCCCNC(=O)CC[C@H](NC(=O)CCCCCCCCCCCCCCCCC(=O)O)C(=O)O)C(=O)N[C@@H](CC(N)=O)C(=O)N[C@@H]([C@@H](C)O)C(=O)N[C@@H](C)C(=O)N[C@@H]([C@@H](C)O)C(=O)N1)[C@@H](C)O)C(=O)N[C@@H](CC(C)C)C(=O)N1CCC[C@H]1C(=O)N1CCC[C@H]1C(=O)N[C@H](C(=O)N[C@@H](CC(N)=O)C(=O)N[C@H](C(=O)NCC(=O)N[C@@H](CO)C(=O)N[C@@H](Cc1c[nH]cn1)C(=O)N[C@H](C(=O)N[C@@H](Cc1ccc(O)cc1)C(N)=O)[C@@H](C)O)C(C)C)[C@@H](C)O [Example 94, N-epsilon1-[(S)-4-Carboxy-4-(17-carboxyheptadecanoylamino)butyryl]-[Glu14,His17,His35]-pramlintide] (H-K([γGlu-C18 diacid])CNTATCATQRLAEFLHHSSNNFGPILPPTNVGSHTY-NH2; disulfide 2-7 (inferred); N-terminus assumed) | > 200 | > 200 | 138 (≈ 614 µg/mL) | > 200 | > 200 | > 200 | > 200 |  |  | 11.3 |  | 138 (≈ 614 µg/mL) | > 200 | > 200 | 0.119 | 0.286
CC[C@H](C)[C@H](NC(=O)[C@@H]1CCCN1C(=O)CNC(=O)[C@H](Cc1ccccc1)NC(=O)[C@H](CC(N)=O)NC(=O)[C@H](CC(N)=O)NC(=O)[C@H](CO)NC(=O)[C@H](CO)NC(=O)[C@H](Cc1c[nH]cn1)NC(=O)[C@H](Cc1c[nH]cn1)NC(=O)[C@H](CC(C)C)NC(=O)[C@H](Cc1ccccc1)NC(=O)[C@H](CCC(=O)O)NC(=O)[C@H](C)NC(=O)[C@H](CC(C)C)NC(=O)[C@H](CCCNC(=N)N)NC(=O)[C@H](CCC(N)=O)NC(=O)[C@@H](NC(=O)[C@H](C)NC(=O)[C@@H]1CSSC[C@H](NC(=O)[C@H](CCC(=O)O)NC(=O)[C@H](CCCNC(=N)N)NC(=O)[C@H](CCC(=O)O)NC(=O)[C@H](CCC(=O)O)NC(=O)CCCCCCCCCCCCCCCCCCC(=O)O)C(=O)N[C@@H](CC(N)=O)C(=O)N[C@@H]([C@@H](C)O)C(=O)N[C@@H](C)C(=O)N[C@@H]([C@@H](C)O)C(=O)N1)[C@@H](C)O)C(=O)N[C@@H](CC(C)C)C(=O)N1CCC[C@H]1C(=O)N1CCC[C@H]1C(=O)N[C@H](C(=O)N[C@@H](CC(N)=O)C(=O)N[C@H](C(=O)NCC(=O)N[C@@H](CO)C(=O)N[C@@H](CC(N)=O)C(=O)N[C@H](C(=O)N1CCC[C@H]1C(N)=O)[C@@H](C)O)C(C)C)[C@@H](C)O [Example 125, N-alpha-(19-carboxynonadecanoyl)-Glu-Glu-Arg-[Glu1,Glu14,His17,Pro37]-pramlintide] ({C20 diacid}-EERECNTATCATQRLAEFLHHSSNNFGPILPPTNVGSNTP-NH2; disulfide 5-10 (inferred); C-terminus assumed) | > 200 | > 200 | > 200 | > 200 | > 200 | > 200 | > 200 |  |  | 19 |  | > 200 | > 200 | > 200 | 0.288 | 0.443
CC[C@H](C)[C@H](NC(=O)[C@@H]1CCCN1C(=O)CNC(=O)[C@H](Cc1ccccc1)NC(=O)[C@H](CC(N)=O)NC(=O)[C@H](CC(N)=O)NC(=O)[C@H](CO)NC(=O)[C@H](CO)NC(=O)[C@H](Cc1c[nH]cn1)NC(=O)[C@H](Cc1c[nH]cn1)NC(=O)[C@H](CC(C)C)NC(=O)[C@H](Cc1ccccc1)NC(=O)[C@H](CCC(=O)O)NC(=O)[C@H](C)NC(=O)[C@H](CC(C)C)NC(=O)[C@H](CCCNC(=N)N)NC(=O)[C@H](CCC(N)=O)NC(=O)[C@@H](NC(=O)[C@H](C)NC(=O)[C@@H]1CSSC[C@H](NC(=O)[C@H](CCCCN)NC(=O)CNC(=O)CC[C@H](NC(=O)CCCCCCCCCCCCCCCCCCC(=O)O)C(=O)O)C(=O)N[C@@H](CC(N)=O)C(=O)N[C@@H]([C@@H](C)O)C(=O)N[C@@H](C)C(=O)N[C@@H]([C@@H](C)O)C(=O)N1)[C@@H](C)O)C(=O)N[C@@H](CC(C)C)C(=O)N1CCC[C@H]1C(=O)N1CCC[C@H]1C(=O)N[C@H](C(=O)N[C@@H](CC(N)=O)C(=O)N[C@H](C(=O)NCC(=O)N[C@@H](CO)C(=O)N[C@@H](Cc1c[nH]cn1)C(=O)N[C@H](C(=O)N[C@@H](Cc1ccc(O)cc1)C(N)=O)[C@@H](C)O)C(C)C)[C@@H](C)O [Example 81, N-alpha-[(S)-4-Carboxy-4-(19-carboxynonadecanoylamino)butyryl]-Gly-[Glu14,His17,His35]-pramlintide] ({C20 diacid-γGlu}-GKCNTATCATQRLAEFLHHSSNNFGPILPPTNVGSHTY-NH2; disulfide 3-8 (inferred); C-terminus assumed) | > 200 | > 200 | > 200 | > 200 | > 200 | > 200 | > 200 |  |  | 24 |  | > 200 | > 200 | > 200 | 0.0955 | 0.0705
